Results as given in PubChem BioAssay AID248 (DTP/NCI, 2004).
Where “and” joins values, the source holds several entries; their conditions need not be identical. Equal entries are not always repeated. Toxic doses and inconclusive results are not listed.

System: L1210 leukemia ip in BDF1 mice, survival T/C
Experiment: NCI In Vivo Anticancer Drug Screen. Data for tumor model L1210 Leukemia (intraperitoneal) in B6D2F1 (BDF1) mice
Settings: endpoint: mean survival time, higher = longer survival
Summary of the method: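 Tumor was transplanted into mice, which were then dosed with test compound or vehicle alone. Survival was recorded for each group, and the treated figure was expressed relative to the control figure.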

[1] = dose: 100.0 mg/kg/injection, schedule: Q04DX003 (ip), vehicle: saline with Tween-80
[2] = dose: 100.0 mg/kg/injection, schedule: Q01DX009 (ip), vehicle: Klucel (hydroxypropylcellulose) (HPC)
[3] = dose: 200.0 mg/kg/injection, schedule: Q01DX009 (ip), vehicle: Klucel (hydroxypropylcellulose) (HPC)
[4] = dose: 400.0 mg/kg/injection, schedule: Q01DX009 (ip), vehicle: Klucel (hydroxypropylcellulose) (HPC)
[5] = dose: 100.0 mg/kg/injection, schedule: Q04DX003 (ip), vehicle: acetone
[6] = dose: 100.0 mg/kg/injection, schedule: Q01DX001 (ip), vehicle: saline
[7] = dose: 200.0 mg/kg/injection, schedule: Q01DX001 (ip), vehicle: saline
[8] = dose: 400.0 mg/kg/injection, schedule: Q01DX001 (ip), vehicle: saline

NC(=NCc1ccccc1)c1ccc(N=C(N)c2ccc(C(N)=Nc3ccc(C(N)=NCc4ccccc4)cc3)cc2)cc1
T/C (dose: 5.0 mg/kg/injection, schedule: Q01DX001 (ip), vehicle: water): 95 % of control | T/C (dose: 6.25 mg/kg/injection, schedule: Q01DX009 (ip), vehicle: saline): 119 % of control | T/C (dose: 10.0 mg/kg/injection, schedule: Q01DX001 (ip), vehicle: water): 96 % of control | T/C (dose: 12.5 mg/kg/injection, schedule: Q01DX009 (ip), vehicle: saline): 153 % of control | T/C (dose: 12.5 mg/kg/injection, schedule: Q01DX015 (oral), vehicle: water): 95 % of control | T/C (dose: 15.0 mg/kg/injection, schedule: Q01DX001 (ip), vehicle: water): 98 % of control | T/C (dose: 18.0 mg/kg/injection, schedule: Q01DX015 (ip), vehicle: water): 249 % of control | T/C (dose: 20.0 mg/kg/injection, schedule: Q01DX001 (ip), vehicle: water): 107 % of control | T/C (dose: 25.0 mg/kg/injection, schedule: Q01DX009 (ip), vehicle: saline): 114 % of control | T/C (dose: 25.0 mg/kg/injection, schedule: Q01DX015 (ip), vehicle: water): 222 % of control and 256 % of control | T/C (dose: 25.0 mg/kg/injection, schedule: Q01DX015 (oral), vehicle: water): 91 % of control | T/C (dose: 50.0 mg/kg/injection, schedule: Q01DX015 (oral), vehicle: water): 98 % of control | T/C (dose: 100.0 mg/kg/injection, schedule: Q01DX015 (oral), vehicle: water): 98 % of control

[N-]=[N+]=NC(=O)C1(Br)CCC2c3ccccc3C([N+](=O)[O-])(C1)c1ccccc12 (configuration not stated)
T/C (dose: 100.0 mg/kg/injection, schedule: Q04DX003 (ip), vehicle: saline): 101 % of control | T/C (dose: 200.0 mg/kg/injection, schedule: Q04DX003 (ip), vehicle: saline): 98 % of control | T/C (dose: 400.0 mg/kg/injection, schedule: Q04DX003 (ip), vehicle: saline): 93 % of control

Cc1ccc(C)c(N2CCN(c3ccncc3N)CC2)c1
T/C (dose: 75.0 mg/kg/injection, schedule: Q01DX001 (ip), vehicle: saline with Tween-80): 98 % of control | T/C (dose: 75.0 mg/kg/injection, schedule: Q01DX009 (ip), vehicle: saline with Tween-80): 95 % of control | T/C (dose: 150.0 mg/kg/injection, schedule: Q01DX001 (ip), vehicle: saline with Tween-80): 93 % of control | T/C (dose: 150.0 mg/kg/injection, schedule: Q01DX009 (ip), vehicle: saline with Tween-80): 102 % of control | T/C (dose: 300.0 mg/kg/injection, schedule: Q01DX001 (ip), vehicle: saline with Tween-80): 101 % of control

CCCCC(C)(C)COc1nc(OCC(C)(C)CCCC)nc(OCC(C)(C)CCCC)n1
T/C (dose: 25.6 mg/kg/injection, schedule: Q04DX002 (ip), vehicle: saline with Tween-80): 97 % of control | T/C (dose: 64.0 mg/kg/injection, schedule: Q04DX002 (ip), vehicle: saline with Tween-80): 87 % of control | T/C [1]: 89 % of control | T/C (dose: 400.0 mg/kg/injection, schedule: Q04DX002 (ip), vehicle: saline with Tween-80): 91 % of control | T/C (dose: 400.0 mg/kg/injection, schedule: Q04DX003 (ip), vehicle: saline with Tween-80): 89 % of control

N#CC(N)=NC1CCC(C2CCC(O)CC2)CC1 (configuration not stated)
T/C [2]: 94 % of control | T/C [3]: 96 % of control | T/C [4]: 96 % of control

c1ccc(CC2NC2c2ccccc2)cc1 (configuration not stated)
T/C (dose: 100.0 mg/kg/injection, schedule: Q04DX002 (ip), vehicle: Klucel (hydroxypropylcellulose) (HPC)): 92 % of control | T/C (dose: 100.0 mg/kg/injection, schedule: Q04DX003 (ip), vehicle: Klucel (hydroxypropylcellulose) (HPC)): 96 % of control | T/C (dose: 200.0 mg/kg/injection, schedule: Q04DX002 (ip), vehicle: Klucel (hydroxypropylcellulose) (HPC)): 98 % of control | T/C (dose: 200.0 mg/kg/injection, schedule: Q04DX003 (ip), vehicle: Klucel (hydroxypropylcellulose) (HPC)): 96 % of control | T/C (dose: 400.0 mg/kg/injection, schedule: Q04DX003 (ip), vehicle: Klucel (hydroxypropylcellulose) (HPC)): 103 % of control

CCCCCCC1N(Cc2ccccc2OC)CCCN1Cc1ccccc1OC
T/C (dose: 100.0 mg/kg/injection, schedule: Q01DX001 (ip), vehicle: carboxymethylcellulose (CMC)): 100 % of control | T/C (dose: 200.0 mg/kg/injection, schedule: Q01DX001 (ip), vehicle: carboxymethylcellulose (CMC)): 105 % of control | T/C (dose: 400.0 mg/kg/injection, schedule: Q01DX001 (ip), vehicle: carboxymethylcellulose (CMC)): 94 % of control

COc1cc(C(=O)NCC2(C)OC3(OC(=O)C2O)C(=O)N/C(=C(\C=O)C(C)=O)OC3C(O)C2CN2C(C)=O)c2cccc(C)c2c1 (configuration not stated)
T/C (dose: 0.05 mg/kg/injection, schedule: Q01DX015 (oral), vehicle: clinical formulation): 107 % of control | T/C (dose: 0.1 mg/kg/injection, schedule: Q01DX001 (ip), vehicle: clinical formulation): 104 % of control and 120 % of control | T/C (dose: 0.1 mg/kg/injection, schedule: Q01DX015 (oral), vehicle: clinical formulation): 113 % of control | T/C (dose: 0.15 mg/kg/injection, schedule: Q03DX005 (ip), vehicle: clinical formulation): 111 % of control | T/C (dose: 0.2 mg/kg/injection, schedule: Q01DX001 (ip), vehicle: clinical formulation): 103 % of control | T/C (dose: 0.2 mg/kg/injection, schedule: Q07DX003 (ip), vehicle: clinical formulation): 105 % of control | T/C (dose: 0.4 mg/kg/injection, schedule: Q01DX001 (ip), vehicle: clinical formulation): 95 % of control and 115 % of control | T/C (dose: 0.8 mg/kg/injection, schedule: Q01DX001 (ip), vehicle: clinical formulation): 107 % of control | T/C (dose: 3.5 micrograms/kg/injection, schedule: Q03DX005 (ip), vehicle: clinical formulation): 114 % of control | T/C (dose: 6.0 micrograms/kg/injection, schedule: Q01DX015 (ip), vehicle: clinical formulation): 112 % of control | T/C (dose: 6.0 micrograms/kg/injection, schedule: Q01DX045 (ip), vehicle: clinical formulation): 124 % of control | T/C (dose: 7.0 micrograms/kg/injection, schedule: Q03DX005 (ip), vehicle: clinical formulation): 122 % of control | T/C (dose: 12.5 micrograms/kg/injection, schedule: Q01DX006 (iv), vehicle: clinical formulation): 109 % of control | T/C (dose: 12.5 micrograms/kg/injection, schedule: Q01DX015 (im), vehicle: clinical formulation): 103 % of control | T/C (dose: 12.5 micrograms/kg/injection, schedule: Q01DX045 (ip), vehicle: clinical formulation): 118 % of control | T/C (dose: 13.0 micrograms/kg/injection, schedule: Q01DX Z (ip), vehicle: saline): 113 % of control | T/C (dose: 13.0 micrograms/kg/injection, schedule: Q07DX003 (ip), vehicle: clinical formulation): 118 % of control | T/C (dose: 25.0 micrograms/kg/injection, schedule: Q01DX006 (iv), vehicle: clinical formulation): 101 % of control | T/C (dose: 25.0 micrograms/kg/injection, schedule: Q01DX015 (im), vehicle: clinical formulation): 109 % of control | T/C (dose: 25.0 micrograms/kg/injection, schedule: Q01DX Z (ip), vehicle: saline): 113 % of control | T/C (dose: 25.0 micrograms/kg/injection, schedule: Q07DX003 (ip), vehicle: clinical formulation): 124 % of control | T/C (dose: 50.0 micrograms/kg/injection, schedule: Q01DX006 (iv), vehicle: clinical formulation): 115 % of control | T/C (dose: 50.0 micrograms/kg/injection, schedule: Q01DX015 (im), vehicle: clinical formulation): 115 % of control | T/C (dose: 50.0 micrograms/kg/injection, schedule: Q01DX Z (ip), vehicle: saline): 98 % of control and 107 % of control | T/C (dose: 100.0 micrograms/kg/injection, schedule: Q01DX006 (iv), vehicle: clinical formulation): 123 % of control | T/C (dose: 100.0 micrograms/kg/injection, schedule: Q01DX015 (im), vehicle: clinical formulation): 110 % of control | T/C (dose: 100.0 micrograms/kg/injection, schedule: Q01DX015 (ip), vehicle: clinical formulation): 95 % of control | T/C (dose: 100.0 micrograms/kg/injection, schedule: Q01DX Z (ip), vehicle: saline): 89 % of control

Cc1cc(C)c(C)c(C(C)O)c1C (configuration not stated)
T/C [1]: 96 % of control | T/C (dose: 200.0 mg/kg/injection, schedule: Q04DX003 (ip), vehicle: saline with Tween-80): 94 % of control

COc1ccc(OC)c2c1C=CCC=C2
T/C (dose: 50.0 mg/kg/injection, schedule: Q01DX009 (ip), vehicle: saline with Tween-80): 95 % of control | T/C (dose: 100.0 mg/kg/injection, schedule: Q01DX009 (ip), vehicle: saline with Tween-80): 88 % of control | T/C [5]: 117 % of control | T/C (dose: 200.0 mg/kg/injection, schedule: Q01DX009 (ip), vehicle: saline with Tween-80): 102 % of control | T/C (dose: 200.0 mg/kg/injection, schedule: Q04DX003 (ip), vehicle: acetone): 94 % of control

Cc1ccc2nc3c4ccccc4scc-3c2c1
T/C [5]: 93 % of control

O=c1[nH]c2cc3[nH]c(=O)c(=O)c3cc2c1=O
T/C [2]: 102 % of control | T/C [3]: 100 % of control | T/C [4]: 100 % of control

CCCC(=O)OCC(=O)c1ccc(-c2ccccc2)cc1
T/C [6]: 96 % of control | T/C [7]: 94 % of control | T/C [8]: 94 % of control

O=C1C(O)=C(O)C(=O)C(O)=C1O
T/C [6]: 103 % of control | T/C [7]: 100 % of control | T/C [8]: 105 % of control
